Results on 14 molecules are retold here after US20230416329A1, “A PEPTIDE WITH DISULFIDE BONDS AND INHIBITORY ACTIVITY AGAINST SERINE PROTEASES, DERIVED HYBRID PEPTIDES THEREOF, AND USES THEREOF” (INSTITUTE OF MATERIA MEDICA , CHINESE ACADEMY OF MEDICAL …, priority 2020, published 2023).

SMILES strings stand for the structures. Read-outs that look alike come from different tables or passages of the source. Bridge positions count the residues as written; N and C are the ends. Square brackets hold non-standard residues; d marks the D form. Peptide text beside a SMILES is read from it. Hyp = O=C(O)[C@@H]1C[C@@H](O)CN1; hCys = N[C@@H](CCS)C(=O)O Some results are limits rather than exact numbers.

This assay has as its target T1, bovine trypsin (Bos taurus, UniProt P00760).
T1 sequence (P00760 24-246): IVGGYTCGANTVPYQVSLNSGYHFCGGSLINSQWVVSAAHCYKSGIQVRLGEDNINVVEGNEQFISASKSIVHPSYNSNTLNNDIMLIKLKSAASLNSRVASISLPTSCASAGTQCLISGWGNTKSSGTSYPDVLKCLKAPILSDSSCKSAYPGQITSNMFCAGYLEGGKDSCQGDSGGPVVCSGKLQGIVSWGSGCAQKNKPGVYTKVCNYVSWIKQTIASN
Kind of assay: Trypsin inhibitory activity of peptides (BApNA hydrolysis, OD405; IC50, Ki, residual activity). It is filed as biochemical. The settings on record: for IC50: trypsin 50 nM, BApNA 1.22 mM, read-out: IC50. The essentials:
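Trypsin (50 nM final) preincubated with peptides at 37 °C in 50 mM Tris-HCl pH 7.8, 20 mM CaCl2; BApNA added (1.22 mM final), 260 min at 37 °C, then OD405 read. Residual activity from enzyme-only and substrate-only controls; IC50 fitted and converted to Ki via Ki=IC50/(1+S/Km), Km measured separately for BApNA.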

The mark [1] stands for this setting: read-out: inhibition constant (Ki) towards trypsin.
The mark [2] stands for this setting: Ki=IC50/(1+S/Km), Km 0.33 mM, read-out: Ki.

Usually Ki stands for a dissociation constant, usually derived from enzyme kinetics or from competition with a known ligand. As usually defined, the IC50 is the concentration at which inhibition is half-maximal.

As to `CC[C@H](C)[C@@H]1NC(=O)[C@@H]2CCCN2C(=O)[C@@H]2CCCN2C(=O)[C@H]([C@@H](C)CC)NC(=O)[C@H](CO)NC(=O)[C@H](CCCCN)NC(=O)[C@H]([C@@H](C)O)NC(=O)[C@H](C)NC(=O)[C@H](CO)NC(=O)CNC(=O)[C@@H](N)CSSC[C@@H](C(=O)N[C@@H](Cc2ccccc2)C(=O)N2CCC[C@H]2C(=O)N[C@@H](CC(=O)O)C(=O)O)NC1=O` [BT6] (H-CGSATKSIPPICFPD-OH; disulfide 1-12; N-terminus and C-terminus assumed), the “inhibitory activity against trypsin (in words)” value (shortened to “inhibitory activity”) is on record as “enhanced trypsin inhibitory activity” and the IC50 came to 290 nM. Moreover, the Residual trypsin activity (peptide 0.000488 μM) came out at 99.3 ± 7.2%. Further, for the setting “peptide 0.002439 μM”, the Residual trypsin activity is on record as 108.6 ± 7.1%. Moreover, the Residual trypsin activity (peptide 0.00488 μM) was 111.9 ± 7.2%. Under “peptide 0.195 μM”, the Residual trypsin activity is recorded as 77.5 ± 7.6%. Further, the Residual trypsin activity (peptide 0.488 μM) is listed as 25.9 ± 2.9%. For the same molecule, the Residual trypsin activity (peptide 0.98 μM) is reported as 8.5 ± 0.9%. The Residual trypsin activity (peptide 1.95 μM) is reported as 2.8 ± 0.0%. Besides, the Residual trypsin activity (peptide 4.88 μM) is 1.2 ± 0.2%. In addition, the Ki under setting [1] was determined as 60 nM.

Regarding `CC[C@H](C)[C@@H]1NC(=O)[C@H](CO)NC(=O)[C@H](CCCCN)NC(=O)[C@H]([C@@H](C)O)NC(=O)[C@H](Cc2c[nH]c3ccccc23)NC(=O)[C@H](CCCNC(=N)N)NC(=O)CNC(=O)[C@@H](N)CSSC[C@@H](C(=O)O)NC(=O)[C@H](Cc2ccccc2)NC(=O)[C@H](C)NC(=O)[C@@H]2CCCN2C(=O)[C@@H]2CCCN2C1=O` [BT39] (H-CGRWTKSIPPAFC-OH; disulfide 1-13 (inferred); N-terminus and C-terminus assumed), the half-maximal inhibitory concentration (IC50) was over 50000 nM.

Regarding `CC[C@H](C)[C@@H]1NC(=O)[C@@H]2CCCN2C(=O)[C@@H]2CCCN2C(=O)[C@H]([C@@H](C)CC)NC(=O)[C@H](C)NC(=O)[C@H](CCCNC(=N)N)NC(=O)[C@H]([C@@H](C)O)NC(=O)[C@H](C)NC(=O)[C@H](CCCNC(=N)N)NC(=O)CNC(=O)[C@@H](N)CSSC[C@@H](C(=O)N[C@@H](Cc2ccccc2)C(=O)O)NC1=O` [BT22] (H-CGRATRAIPPICF-OH; disulfide 1-12; N-terminus and C-terminus assumed), the “inhibitory activity” value is “reduced their anti-trypsin activities”.

With `CC[C@H](C)[C@@H]1NC(=O)[C@H](CO)NC(=O)[C@H](CCCNC(=N)N)NC(=O)[C@H]([C@@H](C)O)NC(=O)[C@H](C)NC(=O)[C@H](CCCNC(=N)N)NC(=O)CNC(=O)[C@@H](N)CSSC[C@@H](C(=O)N[C@@H](Cc2ccccc2)C(=O)O)NC(=O)[C@H]([C@@H](C)CC)NC(=O)[C@@H]2CCCN2C(=O)[C@H](C)NC1=O` [BT20] (H-CGRATRSIAPICF-OH; disulfide 1-12 (inferred); N-terminus and C-terminus assumed), the IC50 was over 50000 nM.

For `CC[C@H](C)[C@@H]1NC(=O)[C@H](C)NC(=O)[C@@H]2CCCN2C(=O)[C@H]([C@@H](C)CC)NC(=O)[C@H](CO)NC(=O)[C@H](CCCCN)NC(=O)[C@H]([C@@H](C)O)NC(=O)[C@H](C)NC(=O)[C@H](CCCNC(=N)N)NC(=O)CNC(=O)[C@@H](N)CSSC[C@@H](C(=O)N[C@@H](Cc2ccccc2)C(=O)O)NC1=O` [BT10] (H-CGRATKSIPAICF-OH; disulfide 1-12), the “inhibitory activity” value is listed as “excellent trypsin inhibitory activities” and the half-maximal inhibitory concentration (IC50) worked out at 110 nM. Also, the Residual trypsin activity (peptide 0.00098 μM) was 99.7 ± 0.6%. For the setting “peptide 0.00488 μM”, the Residual trypsin activity turned out to be 99.8 ± 1.8%. Also, for the setting “peptide 0.0098 μM”, the Residual trypsin activity amounted to 95.5 ± 1.1%. For the same molecule, the Residual trypsin activity (peptide 0.098 μM) is recorded as 55.6 ± 2.3%. Besides, the Residual trypsin activity (peptide 0.195 μM) was determined as 17.2 ± 3.4%. For the setting “peptide 0.488 μM”, the Residual trypsin activity is 1.0 ± 0.1%. The Residual trypsin activity (peptide 0.7317 μM) is 0.2 ± 0.1%. For the same molecule, the Residual trypsin activity (peptide 0.98 μM) was −0.1 ± 0.1%. Further, the Ki under setting [1] stood at 20 nM.

As for `CC[C@H](C)[C@@H]1NC(=O)[C@@H]2CCCN2C(=O)[C@@H]2CCCN2C(=O)[C@H]([C@@H](C)CC)NC(=O)[C@H](CO)NC(=O)[C@H](CCCCN)NC(=O)[C@H]([C@@H](C)O)NC(=O)[C@H](C)NC(=O)[C@H]([C@@H](C)O)NC(=O)CNC(=O)[C@@H](N)CSSC[C@@H](C(=O)N[C@@H](Cc2ccccc2)C(=O)O)NC1=O` [BT25] (H-CGTATKSIPPICF-OH; disulfide 1-12; C-terminus assumed), the “inhibitory activity” value was “excellent trypsin inhibitory activities”. In addition, the Residual trypsin activity (peptide 0.00098 μM) was 100.6 ± 1.3%. For the same molecule, the Residual trypsin activity (peptide 0.0098 μM) is on record as 99.6 ± 1.4%. For the setting “peptide 0.098 μM”, the Residual trypsin activity came to 100.4 ± 1.2%. Further, where the note is “peptide 0.7317 μM”, the Residual trypsin activity was determined as 82.3 ± 3.9%. The Residual trypsin activity (peptide 0.98 μM) came to 49.7 ± 3.5%. Besides, the Residual trypsin activity (peptide 1.2195 μM) turned out to be 23.2 ± 2.1%. Also, for the setting “peptide 9.76 μM”, the Residual trypsin activity was found to be 1.0 ± 0.1%. Also, where the note is “peptide 97.56 μM”, the Residual trypsin activity was found to be 0.2 ± 0.1%. For the same molecule, the Residual trypsin activity (peptide 292.68 μM) turned out to be 0.2 ± 0.2%.

`CC[C@H](C)[C@@H]1NC(=O)[C@H](CCCCN)NC(=O)[C@@H]2CCCN2C(=O)[C@H](C)NC(=O)[C@H](CCCNC(=N)N)NC(=O)CNC(=O)[C@@H](N)CSSC[C@@H](C(=O)N[C@@H](Cc2ccccc2)C(=O)O)NC(=O)[C@H](CCCCN)NC(=O)[C@H](CCCCN)NC(=O)[C@H](CC(C)C)NC1=O` [BT42] (H-CGRAPKILKKCF-OH; disulfide 1-11): the IC50 is over 50000 nM.

As to `CC[C@H](C)[C@@H]1NC(=O)[C@@H]2CCCN2C(=O)[C@@H]2CCCN2C(=O)[C@H]([C@@H](C)CC)NC(=O)[C@H](CO)NC(=O)[C@H](CCCCN)NC(=O)[C@H]([C@@H](C)O)NC(=O)[C@H](C)NC(=O)[C@H](CCCNC(=N)N)NC(=O)CNC(=O)[C@@H](N)CCSSCC[C@@H](C(=O)O)NC(=O)CNC(=O)[C@H](Cc2ccccc2)NC(=O)[C@H](C)NC1=O` [BT33] (H-[hCys]GRATKSIPPIAFG[hCys]-OH; disulfide 1-15; N-terminus assumed), the “inhibitory activity” value is “still maintained good inhibitory activity against trypsin”.

`CC[C@H](C)[C@@H]1NC(=O)[C@H](CO)NC(=O)[C@H](CCCCN)NC(=O)[C@H]([C@@H](C)O)NC(=O)[C@H](Cc2c[nH]c3ccccc23)NC(=O)[C@H](CCCNC(=N)N)NC(=O)CNC(=O)[C@@H](N)CSSC[C@@H](C(=O)O)NC(=O)[C@@H]2CCCN2C(=O)[C@H](CCCCN)NC(=O)[C@@H]2CCCN2C(=O)[C@@H]2CCCN2C1=O` [BT38] (H-CGRWTKSIPPKPC-OH; disulfide 1-13 (inferred); N-terminus and C-terminus assumed): the IC50 was over 50000 nM.

Regarding `CC[C@H](C)[C@@H]1NC(=O)[C@@H]2CCCN2C(=O)[C@@H]2CCCN2C(=O)[C@H]([C@@H](C)CC)NC(=O)[C@H](CO)NC(=O)[C@H](CCCCN)NC(=O)[C@H]([C@@H](C)O)NC(=O)CNC(=O)[C@H](CCCCN)NC(=O)[C@H](C)NC(=O)CNC(=O)[C@@H](N)CSSC[C@@H](C(=O)N[C@@H](CC(=O)O)C(=O)O)NC(=O)[C@H](Cc2ccccc2)NC(=O)CNC1=O` [BT4] (H-CGAKGTKSIPPIGFCD-OH; disulfide 1-15 (inferred); N-terminus and C-terminus assumed), the IC50 is over 50000 nM.

For `CC[C@H](C)[C@@H]1NC(=O)[C@@H]2CCCN2C(=O)[C@@H]2CCCN2C(=O)[C@H]([C@@H](C)CC)NC(=O)[C@H](CO)NC(=O)[C@H](CCCCN)NC(=O)[C@H]([C@@H](C)O)NC(=O)[C@H](C)NC(=O)[C@H](CCCNC(=N)N)NC(=O)[C@@H]2C[C@@H](O)CN2C(=O)[C@@H](N)CSSC[C@@H](C(=O)N[C@@H](Cc2ccccc2)C(=O)O)NC1=O` [BT46] (H-C[Hyp]RATKSIPPICF-OH; disulfide 1-12; C-terminus assumed), the “inhibitory activity” value is reported as “excellent trypsin inhibitory activities” and the half-maximal inhibitory concentration (IC50) worked out at 70 nM. Also, the Ki under setting [2] came out at 10 nM.

As to `CC[C@H](C)[C@@H]1NC(=O)[C@@H]2CCCN2C(=O)[C@@H]2CCCN2C(=O)[C@H]([C@@H](C)CC)NC(=O)[C@H](CO)NC(=O)[C@H](CCCCN)NC(=O)[C@H]([C@@H](C)O)NC(=O)[C@H](CC(C)C)NC(=O)[C@H](CCCNC(=N)N)NC(=O)CNC(=O)[C@@H](N)CSSC[C@@H](C(=O)N[C@@H](Cc2ccccc2)C(=O)O)NC1=O` [BT48] (H-CGRLTKSIPPICF-OH; disulfide 1-12; N-terminus and C-terminus assumed), the Ki under setting [2] came out at 40 nM.

As to `CC[C@H](C)[C@@H]1NC(=O)[C@@H]2CCCN2C(=O)[C@@H]2CCCN2C(=O)[C@H]([C@@H](C)CC)NC(=O)[C@H](CO)NC(=O)[C@H](CCCCN)NC(=O)[C@H]([C@@H](C)O)NC(=O)CNC(=O)[C@H](CCCNC(=N)N)NC(=O)CNC(=O)[C@@H](N)CSSC[C@@H](C(=O)N[C@@H](Cc2ccccc2)C(=O)O)NC1=O` [BT60] (H-CGRGTKSIPPICF-OH; disulfide 1-12), the “inhibitory activity” value is reported as “excellent trypsin inhibitory activities”. Also, the Ki under setting [2] amounted to 90 nM.

As for `CC[C@H](C)[C@@H]1NC(=O)[C@@H]2CCCN2C(=O)[C@@H]2CCCN2C(=O)[C@H]([C@@H](C)CC)NC(=O)[C@H](CO)NC(=O)[C@H](CCCCN)NC(=O)[C@H]([C@@H](C)O)NC(=O)[C@H](C)NC(=O)[C@H](CCCNC(=N)N)NC(=O)[C@H](C(C)C)NC(=O)[C@@H](N)CSSC[C@@H](C(=O)N[C@@H](Cc2ccccc2)C(=O)O)NC1=O` [BT71] (H-CVRATKSIPPICF-OH; disulfide 1-12; N-terminus and C-terminus assumed), the “inhibitory activity” value is listed as “excellent trypsin inhibitory activities” and the IC50 worked out at 110 nM. For the same molecule, the Ki under setting [2] was 20 nM.
